Reference: patent publication US20150031102A1, “METHODS AND COMPOSITIONS FOR ENHANCED PRODUCTION OF BUTANOL BY CLOSTRIDIA” (Butrolix LLC, priority 2012, published 2015)

Test system: Clostridium acetobutylicum strain ATCC 824
Assay: Sequential batch transfer in 24-well culture plates (butanol, residual glucose, butanol yield and productivity)
Format: cell-based
Settings: after 96 hours of culture; for Residual glucose concentration: initial glucose 60 g/L
Description: Each well contained 1.5 mL of growth medium. Peptide was added to each well at the indicated concentration (0, 25, 50, and 100 nM). Every 24 hours fresh medium and peptide treatment were added to a new column of wells then 1.5 μL of the previous day culture was transferred to the new well. Wells were harvested for glucose and butanol analysis after 96 hours of growth. Transfers 1, 4, 7, 10, 13, 16, […].
Briefly, Clostridium spores were germinated in a suitable growth medium for 18-24 hours then […] was transferred to 1.5 mL of fresh medium in each of four wells on a 24-well culture plate. Three of the wells had been treated with 25 nM, 50 nM and 100 nM of peptide, respectively while the fourth well was untreated. Thereafter, every 24 hours […] of each subculture was transferred to 1.5 mL of fresh medium that contained the same peptide treatment or no treatment. Transfers of successive subcultures were done for 24 days, and each subculture was grown for 96 hours before being harvested. Culture supernatants were recovered following centrifugation and were analyzed for butanol and residual glucose concentrations. Determination of optimum peptide treatment levels was based on a graphical comparison of the concentration of butanol in each of the four culture wells for sequential transfers 1, 4, 7, 10, 13, 16, 19, 22 and 24.
Clostridium acetobutylicum strain ATCC 824 was used in all experiments and the growth medium used for sequential batch transfer, time course, and continuous culture experiments contained yeast extract, casamino acids, L-cysteine, L-asparagine, phosphate buffer, trace minerals, and 6% glucose. What are believed to be quorum-sensing peptides that were used in the experiments were chemically synthesized peptides SEQ ID NO: 143 (amino acid sequence: SYPGWSW) and SEQ ID NO: 144 (amino acid sequence: ILILISG). Routine growth of the bacteria as well as the sequential batch and time course experiments were conducted in a Form a Scientific Model 1029 anaerobic gas chamber at 32° C. Continuous cultures were performed at 32° C. using duplicate New Brunswick Scientific BioFlo 3000 apparati with a dilution rate of 0.01 volume per hour, 75 rpm agitation, and nitrogen gas sparging. Optical density of culture samples was measured at 600 nm in a Beckman DU 600 series spectrophotometer and glucose was analyzed using a YSI Model 2700 Select Biochemistry Analyzer with internal glucose calibration. Butanol concentrations were determined by measuring experimental and standard samples using a Varian Saturn 3 Gas Chromatograph/Mass Spectrometer and calculating butanol concentrations using standard curves.
(§1) Sequential batch transfer experiments were carried out in 24-well culture plates that contained 1.5 mL of medium per well. Peptide was added to each well at the indicated concentrations of 0 nM (control), 25 nM, 50 nM, or 100 nM. Every 24 hours, fresh medium and peptide treatments were added to a new column of wells. Then, 1.5 uL of the previous day culture was transferred to the new well. Wells were harvested for glucose and butanol analysis after 96 hours of growth; transfers 1, 4, 7, 10, 13, 16, 19, 22, and 24 were analyzed. Two representative experiments are shown in Tables 30 and 31 and FIGS. 14 and 15.
as §1, with “32” for “30”, “33” for “31”, “16” for “14”, “17.” for “15.”

[1] = 25 nM peptide, transfer 1, Expt. 1
[2] = 25 nM peptide, transfer 4, Expt. 1
[3] = 25 nM peptide, transfer 7, Expt. 1
[4] = 25 nM peptide, transfer 10, Expt. 1
[5] = 25 nM peptide, transfer 13, Expt. 1
[6] = 25 nM peptide, transfer 16, Expt. 1
[7] = 25 nM peptide, transfer 19, Expt. 1
[8] = 25 nM peptide, transfer 22, Expt. 1
[9] = 25 nM peptide, transfer 24, Expt. 1
[10] = 50 nM peptide, transfer 1, Expt. 1
[11] = 50 nM peptide, transfer 4, Expt. 1
[12] = 50 nM peptide, transfer 7, Expt. 1
[13] = 50 nM peptide, transfer 10, Expt. 1
[14] = 50 nM peptide, transfer 13, Expt. 1
[15] = 50 nM peptide, transfer 16, Expt. 1

Substance: ILILISG (Derived from Clostridium acetobutylicum SEQ ID NO: 110) [peptide SEQ ID NO: 144]
- Butanol concentration [1]: 1.93 g/L
- Butanol productivity [1]: 0.02 g butanol/L-h
- Butanol yield [1]: 0.03 g butanol/g/glucose
- Butanol concentration (25 nM peptide, transfer 1, Expt. 2 (repeat), Table 58): 1.25 g/L
- Residual glucose concentration [1]: 43.3 g/L
- Residual glucose concentration (25 nM peptide, transfer 1, Expt. 2 (repeat), Table 45): 48.7 g/L
- Butanol concentration [2]: 10.01 g/L
- Butanol productivity [2]: 0.10 g butanol/L-h
- Butanol yield [2]: 0.17 g butanol/g/glucose
- Butanol concentration (25 nM peptide, transfer 4, Expt. 2 (repeat), Table 58): 2.36 g/L
- Residual glucose concentration [2]: 0.0 g/L
- Residual glucose concentration (25 nM peptide, transfer 4, Expt. 2 (repeat), Table 45): 43.6 g/L
- Butanol concentration [3]: 7.82 g/L
- Butanol productivity [3]: 0.08 g butanol/L-h
- Butanol yield [3]: 0.13 g butanol/g/glucose
- Butanol concentration (25 nM peptide, transfer 7, Expt. 2 (repeat), Table 58): 2.26 g/L
- Residual glucose concentration [3]: .01 g/L
- Residual glucose concentration (25 nM peptide, transfer 7, Expt. 2 (repeat), Table 45): 46.5 g/L
- Butanol concentration [4]: 11.88 g/L
- Butanol productivity [4]: 0.12 g butanol/L-h
- Butanol yield [4]: 0.20 g butanol/g/glucose
- Butanol concentration (25 nM peptide, transfer 10, Expt. 2 (repeat), Table 58): 3.56 g/L
- Residual glucose concentration [4]: 0.1 g/L
- Residual glucose concentration (25 nM peptide, transfer 10, Expt. 2 (repeat), Table 45): 42.5 g/L
- Butanol concentration [5]: 7.56 g/L
- Butanol productivity [5]: 0.08 g butanol/L-h
- Butanol yield [5]: 0.13 g butanol/g/glucose
- Butanol concentration (25 nM peptide, transfer 13, Expt. 2 (repeat), Table 58): 9.51 g/L
- Residual glucose concentration [5]: 0.1 g/L
- Residual glucose concentration (25 nM peptide, transfer 13, Expt. 2 (repeat), Table 45): 0.9 g/L
- Butanol concentration [6]: 8.33 g/L
- Butanol productivity [6]: 0.09 g butanol/L-h
- Butanol yield [6]: 0.14 g butanol/g/glucose
- Butanol concentration (25 nM peptide, transfer 16, Expt. 2 (repeat), Table 58): 12.57 g/L
- Residual glucose concentration [6]: 0.0 g/L
- Residual glucose concentration (25 nM peptide, transfer 16, Expt. 2 (repeat), Table 45): 0.1 g/L
- Butanol concentration [7]: 7.52 g/L
- Butanol productivity [7]: 0.08 g butanol/L-h
- Butanol yield [7]: 0.12 g butanol/g/glucose
- Butanol concentration (25 nM peptide, transfer 19, Expt. 2 (repeat), Table 58): 4.42 g/L
- Residual glucose concentration [7]: 0.1 g/L
- Residual glucose concentration (25 nM peptide, transfer 19, Expt. 2 (repeat), Table 45): 0.1 g/L
- Butanol concentration [8]: 13.47 g/L
- Butanol productivity [8]: 0.14 g butanol/L-h
- Butanol yield [8]: 0.22 g butanol/g/glucose
- Butanol concentration (25 nM peptide, transfer 22, Expt. 2 (repeat), Table 58): 3.65 g/L
- Residual glucose concentration [8]: 9.9 g/L
- Residual glucose concentration (25 nM peptide, transfer 22, Expt. 2 (repeat), Table 45): 0.1 g/L
- Butanol concentration [9]: 7.27 g/L
- Butanol productivity [9]: 0.08 g butanol/L-h
- Butanol yield [9]: 0.12 g butanol/g/glucose
- Butanol concentration (25 nM peptide, transfer 24, Expt. 2 (repeat), Table 58): 2.75 g/L
- Residual glucose concentration [9]: 0.0 g/L
- Residual glucose concentration (25 nM peptide, transfer 24, Expt. 2 (repeat), Table 45): 0.1 g/L
- Butanol concentration [10]: 1.90 g/L
- Butanol productivity [10]: 0.02 g butanol/L-h
- Butanol yield [10]: 0.03 g butanol/g/glucose
- Butanol concentration (50 nM peptide, transfer 1, Expt. 2 (repeat), Table 58): 1.29 g/L
- Residual glucose concentration [10]: 41.8 g/L
- Residual glucose concentration (50 nM peptide, transfer 1, Expt. 2 (repeat), Table 45): 47.4 g/L
- Butanol concentration [11]: 9.57 g/L
- Butanol productivity [11]: 0.10 g butanol/L-h
- Butanol yield [11]: 0.16 g butanol/g/glucose
- Butanol concentration (50 nM peptide, transfer 4, Expt. 2 (repeat), Table 58): 2.24 g/L
- Residual glucose concentration [11]: 0.0 g/L
- Residual glucose concentration (50 nM peptide, transfer 4, Expt. 2 (repeat), Table 45): 44.9 g/L
- Butanol concentration [12]: 7.58 g/L
- Butanol productivity [12]: 0.08 g butanol/L-h
- Butanol yield [12]: 0.13 g butanol/g/glucose
- Butanol concentration (50 nM peptide, transfer 7, Expt. 2 (repeat), Table 58): 1.98 g/L
- Residual glucose concentration [12]: 0.0 g/L
- Residual glucose concentration (50 nM peptide, transfer 7, Expt. 2 (repeat), Table 45): 49.8 g/L
- Butanol concentration [13]: 11.09 g/L
- Butanol productivity [13]: 0.12 g butanol/L-h
- Butanol yield [13]: 0.18 g butanol/g/glucose
- Butanol concentration (50 nM peptide, transfer 10, Expt. 2 (repeat), Table 58): 2.26 g/L
- Residual glucose concentration [13]: 0.0 g/L
- Residual glucose concentration (50 nM peptide, transfer 10, Expt. 2 (repeat), Table 45): 48.0 g/L
- Butanol concentration [14]: 7.90 g/L
- Butanol productivity [14]: 0.08 g butanol/L-h
- Butanol yield [14]: 0.13 g butanol/g/glucose
- Butanol concentration (50 nM peptide, transfer 13, Expt. 2 (repeat), Table 58): 4.58 g/L
- Residual glucose concentration [14]: 0.1 g/L
- Residual glucose concentration (50 nM peptide, transfer 13, Expt. 2 (repeat), Table 45): 49.1 g/L
- Butanol concentration [15]: 9.34 g/L
- Butanol productivity [15]: 0.10 g butanol/L-h
- Butanol yield [15]: 0.15 g butanol/g/glucose
- Butanol concentration (50 nM peptide, transfer 16, Expt. 2 (repeat), Table 58): 3.34 g/L
- Residual glucose concentration [15]: 0.0 g/L
- Residual glucose concentration (50 nM peptide, transfer 16, Expt. 2 (repeat), Table 45): 47.7 g/L
